From patent US12195427B2, “MASP-2 inhibitors and methods of use” (priority 2018, dated 2025)

Experiments:
MASP-2 CCP2-SP = MASP-2 CCP2-SP (Homo sapiens (Human), UniProt O00187); assay: MASP-2 co-crystallization, X-ray crystallography and structure analysis (H-bonds, van der Waals contacts); set-up: van der Waals contact distance, MASP-2 HIS 483 atom CD2 / van der Waals contact distance, MASP-2 HIS 483 atom NE2 / van der Waals contact distance, SER 654 C to compound atom / van der Waals contact distance, SER 654 O to compound atom / van der Waals contact distance, TRP 655 C to compound atom / van der Waals contact distance, MASP-2 GLY 528 atom CA / van der Waals contact distance TRP 655 atom CZ3 / van der Waals contact distance TRP 655 atom N / van der Waals contact distance TRP 655 atom CE3 / van der Waals contact distance GLY 656 atom C / van der Waals contact distance GLY 656 atom CA / van der Waals contact distance GLY 656 atom O / van der Waals contact distance, MASP-2 TYR 607 atom CD1 / van der Waals contact distance, MASP-2 PRO 606 atom O / d(C3,CA1) / d(CA1,N1)2 / d(H4,O1) / d(H4,O2) / d(O1,O2) / d(CA1,O2) / d(CA6,O1) / d(CA6,O2) / d(CA1,C5) / d(O2,H3) / d(N2,C2) / d(CA5,N2) / d(N2,C4) / d(N2,C6) / d(N2,CA3) / d(N2,O3) / d(O4,H2): unit not given beside the values; conditions: for H-bond distance to MASP-2 GLY 656 atom N: GLY 656 N; for H-bond distance to MASP-2 GLY 656 atom O: GLY 656 O; for H-bond distance to MASP-2 SER 654 atom O: SER 654 O; for van der Waals contact distance, MASP-2 amino acid atom to compound atom: ARG 630; for Ligand-pharmacophore element distance, pharmacophore element C2 / Ligand-pharmacophore element distance, pharmacophore element C3 / Ligand-pharmacophore element distance, pharmacophore element C4 / Ligand-pharmacophore element distance, pharmacophore element C5 / Ligand-pharmacophore element distance, pharmacophore element C6 / Ligand-pharmacophore element distance, pharmacophore element C7 / Ligand-pharmacophore element distance, pharmacophore element CA1 / Ligand-pharmacophore element distance, pharmacophore element CA2 / Ligand-pharmacophore element distance, pharmacophore element CA3 / Ligand-pharmacophore element distance, pharmacophore element CA4 / Ligand-pharmacophore element distance, pharmacophore element CA5 / Ligand-pharmacophore element distance, pharmacophore element CA6: Table A4-1; for d(N2,CA2) / d(O2,H3) / d(O2,N2): Table A5-2 pharmacophore distance, S3/S4 region; for a(O1, O2, H3) / a(O1, O2, N2) / a(O2, N2, CA2): Table A6-2 pharmacophore angle;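 as to Ligand-pharmacophore element distance, pharmacophore element C2: distance from averaged pharmacophore element to bound ligand; missing value means element absent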;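 as to Ligand-pharmacophore element distance, pharmacophore element C3: distance from averaged pharmacophore element to bound ligand; missing value means element absent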;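 as to Ligand-pharmacophore element distance, pharmacophore element C4: distance from averaged pharmacophore element to bound ligand; missing value means element absent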;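 as to Ligand-pharmacophore element distance, pharmacophore element C5: distance from averaged pharmacophore element to bound ligand; missing value means element absent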
Chain of MASP-2 CCP2-SP (O00187 445-686): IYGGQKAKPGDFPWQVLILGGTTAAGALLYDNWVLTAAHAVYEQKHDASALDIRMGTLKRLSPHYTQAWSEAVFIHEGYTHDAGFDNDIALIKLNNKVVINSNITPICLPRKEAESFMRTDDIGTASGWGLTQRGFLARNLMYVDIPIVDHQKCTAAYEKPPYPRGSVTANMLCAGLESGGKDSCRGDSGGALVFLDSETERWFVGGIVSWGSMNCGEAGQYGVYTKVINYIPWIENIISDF
Chain of MASP-2 CCP2-SP (O00187 364-432 partner): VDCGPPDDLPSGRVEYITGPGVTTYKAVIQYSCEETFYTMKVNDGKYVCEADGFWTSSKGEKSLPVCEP
Outline: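 Human MASP-2 CCP2-SP (± 6His) expressed in E. coli and crystallized; crystals soaked in crystallization solution containing inhibitor, cryoprotected with 20% glycerol or frozen directly. Synchrotron data at 1.0 wavelength; molecular replacement from 1Q3X, partial refinement; one ligand pose analyzed; LigPlot+ contacts may include H-bonds.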

Lectin Pathway = Lectin Pathway Activation Assay in Human Serum (mannan-coated ELISA, C3c detection); format: biochemical; conditions: 1% human serum
Description: Microtiter ELISA plate was coated with mannan from Saccharomyces cerevisiae (Sigma-Aldrich, M7504) for overnight at 4° C. in coating buffer [15 mM Na2CO3, 35 mM NaHCO3].

[1] = Table A5-1 pharmacophore: distance between elements, S2/S1 region
[2] = Table A7-1, between pharmacophore elements of the bound compound
[3] = Table A7-2, between pharmacophore elements of the bound compound

Compound: C[C@H](NC(=O)[C@H]1C[C@H](Cc2ccccc2)CN1)C(=O)NCc1cnc2[nH]cc(Cl)c2c1 [compound 1334, (2R,4S)-4-Benzyl-N—((S)-1-(((3-chloro-1H-pyrrolo[2,3-b]pyridin-5-yl)methyl)amino)-1-oxopropan-2-yl)pyrrolidine-2-carboxamide]
- H-bond distance to MASP-2 GLY 656 atom N (MASP-2 CCP2-SP; Table A1 (H-Bonds)): 3.16
- H-bond distance to MASP-2 GLY 656 atom O (MASP-2 CCP2-SP; Table A1 (H-Bonds)): 2.83
- H-bond distance to MASP-2 SER 654 atom O (MASP-2 CCP2-SP; Table A1 (H-Bonds)): 2.81
- van der Waals contact distance, MASP-2 HIS 483 atom CD2 (MASP-2 CCP2-SP; Table A2-1): 3.66
- van der Waals contact distance, MASP-2 HIS 483 atom CE1 (MASP-2 CCP2-SP; Table A2-1): 3.84
- van der Waals contact distance, MASP-2 PHE 529 atom CD2 (MASP-2 CCP2-SP; Table A2-3): 3.73
- van der Waals contact distance, MASP-2 TYR 607 atom CD1 (MASP-2 CCP2-SP; Table A2-4): 3.81
- van der Waals contact distance, MASP-2 amino acid atom to compound atom (MASP-2 CCP2-SP; Table A2-9, AA atoms CG, CZ): 3.89
- van der Waals contact distance, MASP-2 amino acid atom to compound atom (MASP-2 CCP2-SP; Table A2-9 second part, AA atoms N, NE, NH1): 3.59
- van der Waals contact distance TRP 655 atom CE3 (MASP-2 CCP2-SP; Table A2-13, MASP-2 TRP 655 CE3, compound atom in line below): 3.66
- van der Waals contact distance TRP 655 atom CZ3 (MASP-2 CCP2-SP; Table A2-13, MASP-2 TRP 655 CZ3): 3.67
- van der Waals contact distance TRP 655 atom N (MASP-2 CCP2-SP; Table A2-13, MASP-2 TRP 655 N): 3.68
- Ligand-pharmacophore element distance, pharmacophore element C2 (MASP-2 CCP2-SP): 0
- Ligand-pharmacophore element distance, pharmacophore element C3 (MASP-2 CCP2-SP): 0
- Ligand-pharmacophore element distance, pharmacophore element C4 (MASP-2 CCP2-SP): 0
- Ligand-pharmacophore element distance, pharmacophore element C5 (MASP-2 CCP2-SP): 0.34
- Ligand-pharmacophore element distance, pharmacophore element C6 (MASP-2 CCP2-SP): 0
- Ligand-pharmacophore element distance, pharmacophore element C7 (MASP-2 CCP2-SP): 0
- Ligand-pharmacophore element distance, pharmacophore element CA1 (MASP-2 CCP2-SP): 1.04
- Ligand-pharmacophore element distance, pharmacophore element CA2 (MASP-2 CCP2-SP): 0.7
- Ligand-pharmacophore element distance, pharmacophore element CA3 (MASP-2 CCP2-SP): 0
- Ligand-pharmacophore element distance, pharmacophore element CA4 (MASP-2 CCP2-SP): 0
- Ligand-pharmacophore element distance, pharmacophore element CA5 (MASP-2 CCP2-SP): 0
- Ligand-pharmacophore element distance, pharmacophore element CA6 (MASP-2 CCP2-SP): 0
- d(CA1,C5) (MASP-2 CCP2-SP; [1]): 3.47
- d(CA1,O1) (MASP-2 CCP2-SP; [1]): 5.33
- d(CA1,O2) (MASP-2 CCP2-SP; [1]): 4.84
- d(CA1,O4) (MASP-2 CCP2-SP; [1]): 1.75
- d(H4,O1) (MASP-2 CCP2-SP; [1]): 3.14
- d(H4,O2) (MASP-2 CCP2-SP; [1]): 3.74
- d(O1,O2) (MASP-2 CCP2-SP; [1]): 3.24
- d(N2,CA2) (MASP-2 CCP2-SP): 6.09
- d(O2,H3) (MASP-2 CCP2-SP): 2.99
- d(O2,N2) (MASP-2 CCP2-SP): 2.77
- a(C5, CA1, O1) (MASP-2 CCP2-SP; Table A6-1 pharmacophore angle): 150.49
- a(CA1, O1, O2) (MASP-2 CCP2-SP; Table A6-1 pharmacophore angle): 100.10
- a(O1, CA1, O4) (MASP-2 CCP2-SP; Table A6-1 pharmacophore angle): 68.25
- a(O1, O2, H4) (MASP-2 CCP2-SP; Table A6-1 pharmacophore angle): 124.74
- a(O1, O2, H3) (MASP-2 CCP2-SP): 136.63
- a(O1, O2, N2) (MASP-2 CCP2-SP): 143.82
- a(O2, N2, CA2) (MASP-2 CCP2-SP): 155.99
- Pharmacophore torsion angle a(C5, CA1, O1, H4) (MASP-2 CCP2-SP; [2]): 2.51
- Pharmacophore torsion angle a(H4, O1, O2, H3) (MASP-2 CCP2-SP; [2]): 110.57
- Pharmacophore torsion angle a(H4, O1, O2, N2) (MASP-2 CCP2-SP; [2]): −172.73
- Pharmacophore torsion angle a(O1, H4, O2, CA1) (MASP-2 CCP2-SP; [2]): −93.67
- Pharmacophore torsion angle a(O1, O2, N2, CA2) (MASP-2 CCP2-SP; [3]): 133.84
- IC50 (Lectin Pathway): 50 to 500 nM

Compound: Cc1nc(N)ccc1CNC(=O)[C@H](C)NC(=O)[C@H]1C[C@H](Cc2ccc(-c3ccccc3)cc2)CN1 [compound 1351, (2R,4S)-4-([1,1′-Biphenyl]-4-ylmethyl)-N—((S)-1-(((6-amino-2-methylpyridin-3-yl)methyl)amino)-1-oxopropan-2-yl)pyrrolidine-2-carboxamide]
- H-bond distance to MASP-2 ASP 627 atom OD2 (MASP-2 CCP2-SP; Table A1 (H-Bonds), ASP 627 OD2): 3.22
- H-bond distance to MASP-2 GLY 656 atom N (MASP-2 CCP2-SP; Table A1 (H-Bonds)): 3.25
- H-bond distance to MASP-2 GLY 656 atom O (MASP-2 CCP2-SP; Table A1 (H-Bonds)): 2.76
- H-bond distance to MASP-2 SER 654 atom O (MASP-2 CCP2-SP; Table A1 (H-Bonds)): 2.98
- H-bond distance to MASP-2 SER 657 atom O (MASP-2 CCP2-SP; Table A1 (H-Bonds), SER 657 O): 2.8
- van der Waals contact distance, MASP-2 HIS 483 atom CD2 (MASP-2 CCP2-SP; Table A2-1): 3.66
- van der Waals contact distance, MASP-2 HIS 483 atom NE2 (MASP-2 CCP2-SP; Table A2-1): 3.9
- van der Waals contact distance, MASP-2 ALA 527 atom CA (MASP-2 CCP2-SP; Table A2-2): 3.71
- van der Waals contact distance, MASP-2 PHE 529 atom CE1 (MASP-2 CCP2-SP; Table A2-3): 3.8
- van der Waals contact distance, MASP-2 amino acid atom to compound atom (MASP-2 CCP2-SP; Table A2-9, AA atoms CG, CZ): 3.81
- van der Waals contact distance, VAL 653 CG1 to compound atom (MASP-2 CCP2-SP; Table A2-11): 3.3
- van der Waals contact distance, TRP 655 CA to compound atom (MASP-2 CCP2-SP; Table A2-12): 3.34
- Ligand-pharmacophore element distance, pharmacophore element C2 (MASP-2 CCP2-SP): 0
- Ligand-pharmacophore element distance, pharmacophore element C3 (MASP-2 CCP2-SP): 0.12
- Ligand-pharmacophore element distance, pharmacophore element C4 (MASP-2 CCP2-SP): 0
- Ligand-pharmacophore element distance, pharmacophore element C5 (MASP-2 CCP2-SP): 0
- Ligand-pharmacophore element distance, pharmacophore element C6 (MASP-2 CCP2-SP): 0
- Ligand-pharmacophore element distance, pharmacophore element C7 (MASP-2 CCP2-SP): 0
- Ligand-pharmacophore element distance, pharmacophore element CA1 (MASP-2 CCP2-SP): 0.57
- Ligand-pharmacophore element distance, pharmacophore element CA2 (MASP-2 CCP2-SP): 0.8
- Ligand-pharmacophore element distance, pharmacophore element CA3 (MASP-2 CCP2-SP): 0
- Ligand-pharmacophore element distance, pharmacophore element CA4 (MASP-2 CCP2-SP): 3.3
- Ligand-pharmacophore element distance, pharmacophore element CA5 (MASP-2 CCP2-SP): 0
- Ligand-pharmacophore element distance, pharmacophore element CA6 (MASP-2 CCP2-SP): 0
- d(C3,CA1) (MASP-2 CCP2-SP; [1]): 2.85
- d(CA1,N1)2 (MASP-2 CCP2-SP; [1]): 1.38
- d(CA1,O1) (MASP-2 CCP2-SP; [1]): 4.47
- d(CA1,O2) (MASP-2 CCP2-SP; [1]): 3.79
- d(H4,O1) (MASP-2 CCP2-SP; [1]): 4.47
- d(H4,O2) (MASP-2 CCP2-SP; [1]): 3.70
- d(O1,O2) (MASP-2 CCP2-SP; [1]): 3.38
- d(N2,CA2) (MASP-2 CCP2-SP): 6.12
- d(O2,H3) (MASP-2 CCP2-SP): 4.26
- d(O2,N2) (MASP-2 CCP2-SP): 2.76
- a(C3, CA1, O1) (MASP-2 CCP2-SP; Table A6-1 pharmacophore angle): 149.86
- a(CA1, O1, O2) (MASP-2 CCP2-SP; Table A6-1 pharmacophore angle): 103.11
- a(O1, O2, H4) (MASP-2 CCP2-SP; Table A6-1 pharmacophore angle): 132.32
- a(N1, CA1, O1) b) (MASP-2 CCP2-SP; Table A6-1 pharmacophore angle, Methyl-amino-pyridine compounds): 173.60
- a(O1, O2, H3) (MASP-2 CCP2-SP): 148.60
- a(O1, O2, N2) (MASP-2 CCP2-SP): 141.59
- a(O2, N2, CA2) (MASP-2 CCP2-SP): 158.04
- Pharmacophore torsion angle a(C3, CA1, O1, H4) (MASP-2 CCP2-SP; [2]): 26.55
- Pharmacophore torsion angle a(H4, O1, O2, H3) (MASP-2 CCP2-SP; [2]): 51.88
- Pharmacophore torsion angle a(H4, O1, O2, N2) (MASP-2 CCP2-SP; [2]): 138.69
- Pharmacophore torsion angle a(N1, CA1, O1, H4) (MASP-2 CCP2-SP; [2]): −0.13
- Pharmacophore torsion angle a(O1, H4, O2, CA1) (MASP-2 CCP2-SP; [2]): −83.97
- Pharmacophore torsion angle a(O1, O2, N2, CA2) (MASP-2 CCP2-SP; [3]): 121.52
- Pharmacophore torsion angle a(O1, O2, N2, CA4) (MASP-2 CCP2-SP; [3]): 119.61
- IC50 (Lectin Pathway): < 50 nM
